A short description of series [1]: Pharmacokinetics (PK) evaluation in mice. It is filed as in vivo. The settings on record: ICR mice, po 10 mg/kg. The protocol: Pharmacokinetics (PK) Evaluation in Mice Test compounds were administered to ICR mice by gavage (po). The po dose was 10 mg/kg, and the vehicle formulation was 10% DMSO+40% PEG400+50% Saline (0.9% saline). Animals were fasted overnight (10-14 h) before administration and fed 4 h after administration. Blood was collected into heparin sodium anticoagulated tubes at multiple time points (0.5, 1, 3, 5 hours) after administration. Mice were euthanized with CO2 and livers were collected at multiple time points (0.5, 1, 3,5 h). The drug concentrations in plasma and liver were analyzed by LC-MS/MS method. Phenix WinNonlin was used to calculate the pharmacokinetic parameters.

Series [2] is described as follows: Cytotoxicity assay (CellTiter Glo). It is filed as cell-based. The settings on record: human; HepG2.2.15 cells, five days post treatment. The protocol:
The Invention Determined Cytotoxicity of the Compounds Against HepG2.2.15 Cells (Table 2)
HepG2.2.15 cells were seeded into 96-well plates (8000 cells per well) and cell viability was measured by the addition of 60 μL of CellTiter Glo reagent (Promega) five days post treatment with the compounds. Cell plates with CellTiter Glo added were shaken on a plate shaker for 20 min and then the chemiluminescence signal was stabilized at room temperature for 10 min. Chemiluminescence values were read using a microplate reader (Bio-TeK SYNERGY NEO2).
The concentration corresponding to 50% cytotoxicity (CC50) was fitted by graphpad prism software. The cytotoxicity was calculated by the formula: % Cytotoxicity=100−(chemiluminescence value of sample Well −average chemiluminescence value of blank medium column)/(average chemiluminescence value of DMSO column −average chemiluminescence value of blank medium column)*100
(In general: ATP-based viability assays read luminescence as a measure of living cells.)

The subject of series [3] is HBV (hepatitis B virus) in HepG2.2.15 cells. Description: Cell-based anti-viral activity assay (HBV DNA in supernatant by quantitative PCR). The settings on record: 120 h, anti-HBV activity, HepG2.2.15 cells, 5 days, read-out: EC50 (HepG2.2.15). A digest of the protocol:
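HepG2.2.15 cells (stably carrying HBV genome) treated with 3.16-fold compound dilutions, final 1% DMSO, for 5 days at 37 °C. Supernatant HBV DNA quantified by qPCR against a standard curve; % inhibition normalised to DMSO and high-concentration reference compound wells.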

Molecules are shown by their SMILES. Read-outs that look alike come from different tables or passages of the source.

What is called AUC(0-t) is the area under the concentration-time curve up to a stated or last time point. The Cmax is the maximum level reached in the sampled fluid or tissue. As usually defined, the CC50 is the concentration that lowers cell viability or growth by half. Broadly, the EC50 is the concentration needed to bring the measured effect to its halfway point. Consider `CCOC(=O)C1=C(CN2CCN3C(=O)N(C45CC(CC(=O)O)(C4)C5)C[C@@H]3C2)NC(c2nccs2)=N[C@H]1c1cccc(F)c1C` [Compound 22, 2-(3-((S)-7-(((S)-5-(Ethoxycarbonyl)-6-(3-Fluoro-2-Methylphenyl)-2-(Thiazol-2-Yl)-3,6-Dihydropyrimidin-4-Yl)Methyl)-3-Oxohexahydroimidazo[1,5-a]Pyrazin-2(3H)-Yl)Bicyclo[1.1.1]Pentan-1-Yl)Acetic Acid], for which the “Liver AUC(0→t)” value in series [1] was 231116 ng·h/g. For the same molecule, the “Liver Cmax” value in series [1] stood at 102141 ng/g. Besides, in series [1] (mouse, liver/plasma, 0.5 hour, read-out: Liver/Plasma ratio), the Kp at 0.5 h was determined as 120. The Kp at 1 h in series [1] (mouse, liver/plasma, 1 hour, read-out: Liver/Plasma ratio) turned out to be 115. The Kp at 3 h in series [1] (mouse, liver/plasma, 3 hour, read-out: Liver/Plasma ratio) was found to be 137. Also, the Kp at 5 h in series [1] (mouse, liver/plasma, 5 hour, read-out: Liver/Plasma ratio) was found to be 297. The concentration at 0.5 h in series [1] (mouse, liver, 0.5 hour, read-out: Liver drug conc.) turned out to be 102000 ng/g; in series [1] (mouse, plasma, 0.5 hour, read-out: Plasm drug conc.), 849 ng/mL. Also, the concentration at 1 h in series [1] (mouse, liver, 1 hour, read-out: Liver drug conc.) was 94800 ng/g; in series [1] (mouse, plasma, 1 hour, read-out: Plasm drug conc.) it was 826 ng/mL. The concentration at 3 h in series [1] (mouse, liver, 3 hour, read-out: Liver drug conc.) is 24700 ng/g; in series [1] (mouse, plasma, 3 hour, read-out: Plasm drug conc.), 180 ng/mL. The concentration at 5 h in series [1] (mouse, liver, 5 hour, read-out: Liver drug conc.) amounted to 12200 ng/g; in series [1] (mouse, plasma, 5 hour, read-out: Plasm drug conc.), 41 ng/mL. This molecule also displayed an AUC(0-t) in series [1] (mouse, plasma) of 1860 ng·h/mL. In series [1] (mouse, plasma), this molecule gave a Cmax of 849 ng/mL. Moreover, the CC50 at 5 days in series [2] was more than 50000 nM. Also, the EC50 in series [3] came out at 7 nM.
Consider `CCOC(=O)C1=C(CN2CCN3C(=O)N(C45CC(COC)(C4)C5)C[C@@H]3[C@H]2C(=O)O)NC(c2nccs2)=N[C@H]1c1cccc(F)c1C` [Compound 47, (8S,8aR)-7-(((S)-5-(Ethoxycarbonyl)-6-(3-Fluoro-2-Methylphenyl)-2-(Thiazol-2-Yl)-3,6-Dihydropyrimidin-4-Yl)Methyl)-2-(3-(Methoxymethyl)Bicyclo[1.1.1]Pentan-1-Yl)-3-Oxooctahydroimidazo[1,5-a]Pyrazine-8-Carboxylic Acid], for which, in series [2], the CC50 at 5 days was more than 50000 nM. The EC50 in series [3] came out at 18 nM.
On to `CCOC(=O)C1=C(CN2CCN3C(=O)N(C45CC(COC)(C4)C5)C[C@@H]3[C@@H]2C(=O)O)NC(c2nccs2)=N[C@H]1c1cccc(F)c1C` [Compound 48, (8R,8aR)-7-(((S)-5-(Ethoxycarbonyl)-6-(3-Fluoro-2-Methylphenyl)-2-(Thiazol-2-Yl)-3,6-Dihydropyrimidin-4-Yl)Methyl)-2-(3-(Methoxymethyl)Bicyclo[1.1.1]Pentan-1-Yl)-3-Oxooctahydroimidazo[1,5-a]Pyrazine-8-Carboxylic Acid], for which the CC50 at 5 days in series [2] is more than 50000 nM. For the same molecule, in series [3], the EC50 was determined as 15 nM.
For `CCOC(=O)C1=C(CN2CCN3C(=O)N(C45CC(N(C)CC(=O)O)(C4)C5)C[C@@H]3C2)NC(c2nccs2)=N[C@H]1c1cccc(F)c1C` [Compound 49, N-(3-((S)-7-(((S)-5-(Ethoxycarbonyl)-6-(3-Fluoro-2-Methylphenyl)-2-(Thiazol-2-Yl)-3,6-Dihydropyrimidin-4-Yl)Methyl)-3-Oxohexahydroimidazo[1,5-a]Pyrazin-2(3H)-Yl)Bicyclo[1.1.1]Pentan-1-Yl)-N-Methylglycine], in series [2], the CC50 at 5 days is more than 50000 nM. The EC50 in series [3] was 17 nM.
For the molecule `CCOC(=O)C1=C(CN2CCN3C(=O)N(C45CCC(C(=O)O)(CC4)CC5)C[C@@H]3C2)NC(c2nccs2)=N[C@H]1c1cccc(F)c1C` [Compound 52, 4-((S)-7-(((S)-5-(Ethoxycarbonyl)-6-(3-Fluoro-2-Methylphenyl)-2-(Thiazol-2-Yl)-3,6-Dihydropyrimidin-4-Yl)Methyl)-3-Oxohexahydroimidazo[1,5-a]Pyrazin-2(3H)-Yl)Bicyclo[2.2.2]Octane-1-Carboxylic Acid], in series [2], the CC50 at 5 days is more than 50000 nM. In series [3], the concentration for a half-maximal effect (EC50) came out at 3 nM.
On to `CCOC(=O)C1=C(CN2CCN3C(=O)N(C45CCC(C(=O)O)(CC4)CC5)C[C@@H]3C2)NC(c2nccs2)=N[C@H]1c1ccc(F)cc1C` [Compound 53, 4-((S)-7-(((S)-5-(Ethoxycarbonyl)-6-(4-Fluoro-2-Methylphenyl)-2-(Thiazol-2-Yl)-3,6-Dihydropyrimidin-4-Yl)Methyl)-3-Oxohexahydroimidazo[1,5-a]Pyrazin-2(3H)-Yl)Bicyclo[2.2.2]Octane-1-Carboxylic Acid], for which the CC50 at 5 days in series [2] is more than 50000 nM. Besides, the EC50 in series [3] stood at 9 nM.
Turning to `CCOC(=O)C1=C(CN2CCN3C(=O)N(C45CCC(C(=O)O)(CC4)CC5)C[C@@H]3C2)NC(c2nccs2)=N[C@H]1c1ccc(F)cc1Cl` [Compound 55, 4-((S)-7-(((R)-6-(2-Chloro-4-Fluorophenyl)-5-(Ethoxycarbonyl)-2-(Thiazol-2-Yl)-3,6-Dihydropyrimidin-4-Yl)Methyl)-3-Oxohexahydroimidazo[1,5-a]Pyrazin-2(3H)-Yl)Bicyclo[2.2.2]Octane-1-Carboxylic Acid], the CC50 at 5 days in series [2] is more than 50000 nM. In addition, the EC50 in series [3] stood at 2 nM.
With `CCOC(=O)C1=C(CN2CCN3C(=O)N(C45CCC(C(=O)O)(C4)C5)C[C@@H]3C2)NC(c2nccs2)=N[C@H]1c1cccc(F)c1C` [Compound 56, 4-((S)-7-(((S)-5-(Ethoxycarbonyl)-6-(3-Fluoro-2-Methylphenyl)-2-(Thiazol-2-Yl)-3,6-Dihydropyrimidin-4-Yl)Methyl)-3-Oxohexahydroimidazo[1,5-a]Pyrazin-2(3H)-Yl)Bicyclo[2.1.1]Hexane-1-Carboxylic Acid], the CC50 at 5 days in series [2] is more than 50000 nM. Moreover, the concentration giving a half-maximal response (EC50) in series [3] turned out to be 16 nM.
With `CCOC(=O)C1=C(CN2CCN3C(=O)N(C45CCC(C(=O)O)(C4)C5)C[C@@H]3C2)NC(c2nccs2)=N[C@H]1c1ccc(F)cc1Cl` [Compound 57, 4-((S)-7-(((R)-6-(2-Chloro-4-Fluorophenyl)-5-(Ethoxycarbonyl)-2-(Thiazol-2-Yl)-3,6-Dihydropyrimidin-4-Yl)Methyl)-3-Oxohexahydroimidazo[1,5-a]Pyrazin-2(3H)-Yl)Bicyclo[2.1.1]Hexane-1-Carboxylic Acid], the CC50 at 5 days in series [2] is more than 50000 nM. Moreover, the EC50 in series [3] was 12 nM.
With `CCOC(=O)C1=C(CN2CCN3C(=O)N(C45CCC(C(=O)O)(CC4)C5)C[C@@H]3C2)NC(c2nccs2)=N[C@H]1c1cccc(F)c1C` [Compound 59, 4-((S)-7-(((S)-5-(Ethoxycarbonyl)-6-(3-Fluoro-2-Methylphenyl)-2-(Thiazol-2-Yl)-3,6-Dihydropyrimidin-4-Yl)Methyl)-3-Oxohexahydroimidazo[1,5-a]Pyrazin-2(3H)-Yl)Bicyclo[2.2.1]Heptane-1-Carboxylic Acid], in series [2], the CC50 at 5 days was more than 50000 nM. Further, the EC50 in series [3] was found to be 12 nM.
In the case of `CCOC(=O)C1=C(CN2CCN3C(=O)N(C45CCC(C(=O)O)(CC4)C5)C[C@@H]3C2)NC(c2nccs2)=N[C@H]1c1ccc(F)cc1Cl` [Compound 60, 4-((S)-7-(((R)-6-(2-Chloro-4-Fluorophenyl)-5-(Ethoxycarbonyl)-2-(Thiazol-2-Yl)-3,6-Dihydropyrimidin-4-Yl)Methyl)-3-Oxohexahydroimidazo[1,5-a]Pyrazin-2(3H)-Yl)Bicyclo[2.2.1]Heptane-1-Carboxylic Acid], the CC50 at 5 days in series [2] was more than 50000 nM. For the same molecule, the EC50 in series [3] was found to be 9 nM.
In the same order, the values of `CCOC(=O)C1=C(CN2CCN3C(=O)N(C45C6C7C4C4C5C6C74C(=O)O)C[C@@H]3C2)NC(c2nccs2)=N[C@H]1c1cccc(F)c1C` (stereo partly shown) [Compound 61] are more than 50000 nM and 17 nM.

(Values after patent US20240166649A1, “DIHYDROPYRIMIDINE COMPOUND, PREPARATION METHOD THEREFOR AND APPLICATION THEREOF” (Shanghai Visonpharma Co., Ltd., priority 2021, published 2024).)
